We go through six compounds from paper PMC7914775, “Molecules Present in Plant Essential Oils for Prevention and Treatment of Colorectal Cancer (CRC)” (Molecules, 2021).

One data set has as its system NCM-460 cell line. In words: cells. The note with it: for concentration affecting cell viability: NCM-460, after 24 h. As to the method:
(§1) Briefly, cells were firstly seeded, in triplicate, into 96-well culture plates at 10^4 cells/well. […] Ethanol 99.5% was used to solubilize essential oils. The final concentration of ethanol in the cell medium was kept lower than 0.1%. Ethanol 0.1% was added to the control (untreated) cells.
(§2) The cytotoxicity of the essential oil single components was evaluated by MTT assay on 96-well plates. After 24, 48 and 72 h, MTT (dissolved in PBS) was diluted with fresh medium at final concentration of 0.5 mg/mL, added to cell culture and incubated at 37 °C. After 4 h, the medium was removed and 100 μL of DMSO was added. After 1 h at room temperature, the purple formazan crystals were dissolved, and the plates were read in a microplate reader (Victor3™, Perkin Elmer, Waltham, MA, USA). Absorbance was measured at 595 nm. Cell growth inhibition rate was calculated as a percentage of treated cells on control ones.

In the next data set the test system is Caco-2 cell line. Briefly: cells. Set-up: effect on cell growth, MTT: dose or concentration left out as unconfirmed. The conditions noted are these: for IC50: Caco-2, MTT. As to the method: as §1, §2
A further data set deals with SW-620 cell line. Briefly: MTT cell viability assay, SW-620. The note with it: for IC50: SW-620, MTT. On the procedure:
Briefly, cells were firstly seeded, in triplicate, into 96-well culture plates at 10^4 cells/well. […] The final concentration of ethanol in the cell medium was kept lower than 0.1%. Ethanol 0.1% was added to the control (untreated) cells.
as §2
For orientation: Formazan colour is commonly taken as a measure of viable cells.

For data set [1], the system named is Caco-2 cells. The note with it: viability of Caco-2 cells; cited from earlier work.
Data set [2] relates to NCM-460 cells. Briefly: Cell cycle analysis (propidium iodide, flow cytometry), NCM-460. It counts as cell-based, human. The conditions noted are these: NCM-460, 72 h; 75 µM cinnamaldehyde, 800 µM eugenol; vs control. As to the method: (§3) Cell cycle analysis and apoptosis detection assay were only performed in cell treated with cinnamaldehyde and eugenol, at dosages that were not found toxic on the NCM-460 cell line. Briefly, 100,000 cells were seeded into 6-well cultured plates and allowed to attach for 24 h. After that, cells were treated for 72 h as previously described. Then, the cells were collected for the cell cycle analysis, washed twice with PBS, fixed with 70% ethanol, and incubated at −20 °C overnight. Then, the cells were washed with 500 µL of PBS, centrifuged at 1500 rpm for 5 min, resuspended in 500 μL of PBS containing 50 μg/mL RNase A and incubated for 30 min at room temperature. Cells were then centrifuged at 1500 rpm for 5 min, resuspended in PBS, and 10 µg/mL of Propidium iodide was added. Detection of apoptotic cells was performed with Annexin V/Propidium iodide detection kit, following the manufacturer’s instructions (Bender Medsystems, Wien, Austria). Cells were analyzed by flow cytometry (FACS) (Cytoflex, Beckman Coulter, CA, USA).
In general terms: In flow cytometry, cells or beads pass a laser one at a time.

Data set [3] concerns Caco-2 cells. Briefly: in vitro. Type of data set: cell-based, human. The conditions noted are these: for cell death, Annexin V/PI: Caco-2, 72 h, 800 µM eugenol, 75 µM cinnamaldehyde. On the procedure: as §3
In data set [4] the test system is NCM-460 cells. Briefly: in vitro. It counts as cell-based, human. The note with it: NCM-460, 72 h; 800 µM eugenol, 75 µM cinnamaldehyde. On the procedure: as §3
The subject of data set [5] is SW-620 cells. In words: in vitro. Type of data set: cell-based, human. The conditions noted are these: for Q2-UL cells (upper left quadrant, necrosis): SW620, 72 h, eugenol 800 µM (E800), cinnamaldehyde 75 µM (A75); for cell death, Annexin V/PI: SW-620, 72 h, 800 µM eugenol, 75 µM cinnamaldehyde. On the procedure: as §3
Data set [6] deals with SW-620 cells. Briefly: Cell cycle analysis (propidium iodide, flow cytometry), SW-620. It counts as cell-based, human. The note with it: SW-620, 72 h; 75 µM cinnamaldehyde, 800 µM eugenol; vs control. On the procedure: as §3
The test system of data set [7] is Caco-2 cells. In words: Cell cycle analysis (propidium iodide, flow cytometry), Caco-2. The note with it: Caco-2, 72 h; 75 µM cinnamaldehyde, 800 µM eugenol; vs control. It counts as cell-based, human. As to the method: as §3
The nature of another data set: in vitro. The conditions noted are these: human, eugenol 800 µM (E800), cinnamaldehyde 75 µM (A75), read-out: Q2-LL cells (lower left, viable, AnnexinV −/PI −). Type of data set: cell-based, human. On the procedure: as §3
Setting [8] is: Homo sapiens, Caco-2, 24 h, 24 h.
[9] abbreviates: Homo sapiens, Caco-2, 72 h, 72 h.
Setting [10] is: Homo sapiens, SW-620, 24 h, 24 h.
Setting [11] is: Homo sapiens, SW-620, 72 h, 72 h.
Setting [12] is: Caco2, 72 h, eugenol 800 µM (E800), cinnamaldehyde 75 µM (A75).

Like-named read-outs stand apart in the source and are kept apart here.

Consider `Cc1ccc(C(C)C)cc1O` [carvacrol], for which the “concentration affecting cell viability” value with NCM-460 cell line was found to be 500 µM. The “effect on viability, MTT” value in the data set on Caco-2 cell line (Caco-2, same range of concentrations used by Llana-Ruiz-Cabello and co-workers [19]) is reported as “reduced Caco-2 cell viability”. In addition, in the data set with SW-620 cell line (SW-620, 24 and 48 h, up to the maximum tested concentration of 750 μM), the “toxicity, MTT” value was “no toxicity”. Moreover, in the data set on SW-620 cell line (SW-620, 250, 500 and 750 µM, only after 72 h), the “cytotoxic effect, MTT” value is recorded as “modest statistically significant toxicity”.

Turning to `CC(C)=CCC/C(C)=C/CO` [Geraniol], the “effect on cell proliferation, MTT” value in the data set with NCM-460 cell line (NCM-460, 100–800 µM, 48–72 h) is recorded as “increase cell proliferation”; in the data set on Caco-2 cell line (Caco-2, 100–800 µM, 72 h) it was “increase cell proliferation”. Besides, in the data set on Caco-2 cell line (human, 72 h, 1000 µM), the “cytotoxic effect, MTT” value is reported as “not on the Caco-2 cells”.

As to `Cc1ccc(C(C)C)c(O)c1` [thymol], the “concentration affecting cell viability” value with NCM-460 cell line stood at 165 µM. Also, in the data set with SW-620 cell line (SW-620, 660 and 1320 µM), the “cytotoxic effect, MTT” value is “cytotoxic effect was also detectable”. In the data set on SW-620 cell line (SW-620, after 24 h), this compound yielded a toxic concentration of 660 µM. Also, the IC50 in the data set on Caco-2 cells [1] is 700 µM.

Take `O=C/C=C/c1ccccc1` [cinnamaldehyde]: the IC50 is 218 µM in the data set with NCM-460 cell line (Homo sapiens, NCM460, 24 h, NCM-460, MTT, 24 h); 83 µM in the data set with NCM-460 cell line (Homo sapiens, NCM460, 72 h, NCM-460, MTT, 72 h); 218 µM in the data set on NCM-460 cell line (NCM-460, MTT, 24 h); 83.2 µM with NCM-460 cell line (NCM-460, MTT, 72 h); 166 µM in the data set on Caco-2 cell line (24 h); 86.9 µM in the data set with Caco-2 cell line (72 h). Further, the IC50 in the data set with Caco-2 cell line (setting [8]) amounted to 166 µM; in the data set on Caco-2 cell line (setting [9]), 87 µM; in the data set with SW-620 cell line (setting [10]), 92 µM; in the data set with SW-620 cell line (setting [11]), 92 µM; in the data set on SW-620 cell line (24 h), 92 µM; with SW-620 cell line (72 h), 92.1 µM. Further, the “effect on viability, MTT” value in the data set on Caco-2 cell line (Caco-2, 75 (µg/mL in the source), 48 and 72 h) is on record as “reduced viability”; in the data set with SW-620 cell line (SW-620, 75 (µg/mL in the source), any timepoint), “reduced viability”. Also, the “Selectivity Index” value with Caco-2 cell line (IC50 NCM460 / IC50 Caco2, 24 h) is reported as 1.31; in the data set on Caco-2 cell line (IC50 NCM460 / IC50 Caco2, 72 h) it was 0.96; in the data set on SW-620 cell line (IC50 NCM460 / IC50 SW620, 24 h), 2.37; with SW-620 cell line (IC50 NCM460 / IC50 SW620, 72 h), 0.9. In addition, the figures for the “effect on cell cycle progression” value in the data set on NCM-460 cells [2], in the data set on SW-620 cells [6] and in the data set with Caco-2 cells [7] were “did not find differences”, “G1 accumulation” and “reduction of G2 phase”, respectively. In addition, the “cell death, Annexin V/PI” value with Caco-2 cells [3] is “both late apoptosis and necrosis were detected”; with NCM-460 cells [4], “did not induce”; in the data set with SW-620 cells [5], “both late apoptosis and necrosis were detected”. The “Q2-UL cells (upper left quadrant, necrosis)” value in the data set with SW-620 cells [5] is listed as 15.98%.

As for `C=CCc1ccc(O)c(OC)c1` [eugenol], the 50% inhibitory concentration (IC50) in the data set with NCM-460 cell line (Homo sapiens, NCM460, 24 h) worked out at 1370 µM; with NCM-460 cell line (Homo sapiens, NCM460, 72 h) it was 1160 µM; with Caco-2 cell line (24 h), 485 µM; in the data set on Caco-2 cell line (72 h), 730 µM; in the data set on Caco-2 cell line (setting [8]), 458 µM; in the data set on Caco-2 cell line (setting [9]) it was 730 µM. For the same compound, the IC50 amounted to 918 µM in the data set on SW-620 cell line (setting [10]), 866 µM with SW-620 cell line (setting [11]), 918 µM in the data set with SW-620 cell line (24 h) and 866 µM in the data set with SW-620 cell line (72 h). In addition, the “effect on cell proliferation, MTT” value in the data set on NCM-460 cell line (NCM-460, lower doses from 100 to 400 µM) was “seemed to stimulate”; in the data set on Caco-2 cell line (Caco-2, lower doses from 100 to 400 µM), “seemed to stimulate”. The “Selectivity Index” value with Caco-2 cell line (IC50 NCM460 / IC50 Caco2, 24 h) is given as 2.82; with Caco-2 cell line (IC50 NCM460 / IC50 Caco2, 72 h) it was 1.60; in the data set with SW-620 cell line (IC50 NCM460 / IC50 SW620, 24 h), 1.49; in the data set with SW-620 cell line (IC50 NCM460 / IC50 SW620, 72 h), 1.34. In addition, the “effect on cell cycle progression” value with NCM-460 cells [2] is reported as “did not find differences”; in the data set with SW-620 cells [6], “G1 accumulation”; in the data set with Caco-2 cells [7], “reduction of G2 phase”. For the same compound, the results for the “Q2-UL cells (upper left quadrant, necrosis)” value with Caco-2 cells [3] (setting [12]) and in the data set with SW-620 cells [5] were 25.95% and 17.12%, respectively. The “Q2-UR cells (upper right quadrant, late apoptosis)” value in the data set with Caco-2 cells [3] (setting [12]) came out at 5.55%. The “cell death, Annexin V/PI” value was “both late apoptosis and necrosis were detected” in the data set on Caco-2 cells [3]; “did not induce” with NCM-460 cells [4]; “both late apoptosis and necrosis were detected” with SW-620 cells [5]. In addition, the viability at 72 h in the data set “in vitro” (Caco2, 72 h) came out at 67.5%; in “in vitro” (NCM460, 72 h) it was 95.4%; in the data set “in vitro” (SW620, 72 h), 81.3%.

Take `C=C1CC/C=C(\C)CC[C@@H]2[C@@H]1CC2(C)C` [β-caryophyllene]: the “effect on viability, MTT” value was “affected the viability” in the data set with NCM-460 cell line (NCM-460, 240 and 360 µM at 24 h and 120–260 µM at 72 h); “affected the viability” with SW-620 cell line (SW-620, 260 µM at 24, 48 and 72 h). Besides, the “effect on cell growth, MTT” value in the data set with Caco-2 cell line (Caco-2) is “increased cell growth”.

The IC50 is the point on the concentration scale where inhibition reaches its midpoint.
